Experimental data taken from the NIST ThermoML archive (doi:10.1021/acs.jced.6b00888).

Test: wn = mass fraction of the nth substance listed
Settings: 101.3 kPa, Liquid, Vibrating tube method

CN(C)CCO [2-(N,N-dimethylamino)ethanol] + O
mass density [kg/m3]
Settings | w1 = 0.1 | w1 = 0.2 | w1 = 0.3 | w1 = 0.49 | w1 = 0.64 | w1 = 0.69 | w1 = 0.79 | w1 = 0.9 | w1 = 1
293.15 K | 994.8 | 992.8 | 990.8 | 981.7 | 963 | 955.3 | 935.1 | 911.3 | 882.2
298.15 K | 993.3 | 990.8 | 988.1 | 978 | 959 | 951.3 | 931.1 | 906.9 | 884
303.15 K | 991.6 | 988.6 | 985.2 | 974.2 | 954.9 | 947.2 | 926.9 | 902.2 | 879.8
308.15 K | 989.7 | 986.2 | 982.2 | 970.4 | 950.8 | 943 | 922.7 | 897.9 | 875.5
313.15 K | 987.6 | 983.6 | 979.1 | 966.5 | 946.6 | 938.8 | 918.5 | 893.5 | 871.2
318.15 K | 985.3 | 980.9 | 975.8 | 962.6 | 942.4 | 934.5 | 914.2 | 889.1 | 866.8
323.15 K | 982.9 | 978.4 | 972.5 | 958.6 | 938 | 930.1 | 909.8 | 884 | 862.4
328.15 K | 980.3 | 975.1 | 969.1 | 954.5 | 933.7 | 925.7 | 905.4 | 879.3 | 858
333.15 K | 977.6 | 972 | 965.5 | 950.3 | 929.2 | 921.2 | 900.9 | 874.8 | 853.5
338.15 K | 974.7 | 968.8 | 961.9 | 946.1 | 924.7 | 916.7 | 896.4 | 870.4 | 849
343.15 K | 971.7 | 965.5 | 958.2 | 941.8 | 920.2 | 912.1 | 891.8 | 865.8 | 844.4
